# In ChEMBL document CHEMBL1201862, “PubChem BioAssay data set” (2004):
# Calls of active or inactive are those of the source. Cut-off read from the data, not from the text of the source, for most assays here: actives have a measured AC50 and inactives only a lower limit.
# Legend:
# [1] = biological target: Peroxisome proliferator-activated receptor gamma/Nuclear receptor coactivator 3 (Homo sapiens, UniProt P37231); assay: TR-FRET dose response biochemical High Throughput Screening assay for agonists of the steroid receptor coactivator 3 (SRC-3) recruitment by the peroxisome proliferator-activated receptor gamma (PPAR gamma): non-selective agonists. [Related pubchem assays: 1301 (Confirmation screen.), 1048 (Primary screen.)]; type: functional
# [2] = biological target: Peroxisome proliferator-activated receptor gamma/Nuclear receptor coactivator 2 (Homo sapiens, UniProt P37231); assay: (§1) TR-FRET dose response biochemical High Throughput Screening assay for agonists of the steroid receptor coactivator 2 (SRC-2) recruitment by the peroxisome proliferator-activated receptor gamma (PPAR gamma): non-selective agonists. [Related pubchem assays: 1297, 1032 ]; type: functional
# [3] = biological target: Peroxisome proliferator-activated receptor gamma/Nuclear receptor coactivator 1 (Homo sapiens, UniProt P37231); assay: as §1, with “1 (SRC-1)” for “2 (SRC-2)”, “assays (depositor defined):AID1300, AID1808, AID504735, AID631]” for “assays: 1297, 1032 ]”; type: protein assay
# [4] = potency of ADAM10 substrate cleavage blockers – biochemical, QFRET, dose response (AID 743254);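 note: ADAM10 enzyme with the DM2 quenched FRET peptide as substrate; EDANS fluorescence gain as the protease cuts the substrate; inhibitor potency against ADAM10 proteolytic activity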
# [5] = biological target: Disintegrin and metalloproteinase domain-containing protein 17 (Homo sapiens, UniProt P78536); assay: inhibition of ADAM17 substrate cleavage – biochemical, quenched FRET substrate, counter-screen for ADAM10 exosite inhibitor project, dose response (AID 743253)
# Protein skinhead-1 = biological target: T1, Protein skinhead-1 (Caenorhabditis elegans, UniProt P34707); type: functional
# T1 sequence (P34707 whole entry): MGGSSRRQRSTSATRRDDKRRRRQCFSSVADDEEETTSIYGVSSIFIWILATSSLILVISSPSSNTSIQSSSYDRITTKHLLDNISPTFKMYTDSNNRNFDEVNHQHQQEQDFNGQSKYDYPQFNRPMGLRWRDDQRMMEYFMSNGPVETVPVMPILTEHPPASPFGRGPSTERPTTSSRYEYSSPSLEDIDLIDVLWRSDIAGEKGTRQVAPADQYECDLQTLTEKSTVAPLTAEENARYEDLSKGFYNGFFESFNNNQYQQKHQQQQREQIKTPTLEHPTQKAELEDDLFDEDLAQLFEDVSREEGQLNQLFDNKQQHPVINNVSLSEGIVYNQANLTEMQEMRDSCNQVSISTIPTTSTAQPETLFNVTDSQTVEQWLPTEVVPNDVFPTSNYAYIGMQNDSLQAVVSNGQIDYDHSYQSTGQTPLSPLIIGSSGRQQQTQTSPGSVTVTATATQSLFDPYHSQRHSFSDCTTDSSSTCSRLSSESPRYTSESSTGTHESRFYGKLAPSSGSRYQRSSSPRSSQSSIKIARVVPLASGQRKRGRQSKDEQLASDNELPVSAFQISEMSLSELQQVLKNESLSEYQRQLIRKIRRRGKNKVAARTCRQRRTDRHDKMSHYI
# [6] = viability loss in MITF-independent A375 cells – cell-based, CellTiter-Glo luminescence, dry powder, set 2, counter-screen for MITF inhibitor project, dose response (AID 624489); type: functional; details: A-375;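 note: actives are compounds lowering A375 viability meaning general cytotoxicity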
# [7] = cytotoxicity in MITF-independent A375 cells – cell-based, CellTiter-Glo luminescence, dry powder, set 4, counter-screen for MITF inhibitor project, dose response (AID 624364); type: functional; details: A-375;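 note: A375 melanoma cells are MITF independent so this is a counter screen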
# [8] = viability loss in HEK293 cells – cell-based, plate reader, cherry-picked samples, cytotoxicity control, dose response (AID 743446); type: functional
# [9] = A549 cell cytotoxicity, dose response, cytotoxicity control, plate reader, cherry-pick, antagonist series (AID 743412); type: functional, cell-based
# [10] = toxicity toward HepG2 liver cells – cell-based, plate reader, cherry-pick, antagonist series, cytotoxicity control, dose response (AID 743416); type: functional
# [11] = inhibition of bursicon-driven LGR2 cAMP signaling – cell-based, HEK293, CRE-luciferase reporter, cherry pick, dose response (AID 743342); type: functional
# [12] = P. falciparum Dd2 growth inhibitors, dose response, SYBR Green, cherry-picked samples (AID 1159567); type: functional, cell-based
# [13] = toxicity to human hepatoma HepG2 cells – cell-based, cherry-picked samples, cytotoxicity control, dose response (AID 1159577); type: functional
# [14] = biological target: Kappa-type opioid receptor (Homo sapiens, UniProt P41145); assay: kappa opioid receptor antagonism potency – cell-based, fluorescence, dose response, late-stage follow-up (AID 652032); type: functional
# [15] = inhibitors acting on PAX2 in cells – cell-based, plate reader, dry powder samples, selectivity assay for PAX8 inhibitor project, dose response (AID 743048); type: functional;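 note: HEK293 cells carrying a WT1 promoter luciferase reporter driven by expressed Pax2; potency is for inhibition of Pax2 driven reporter signal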
# [16] = PAX8-dependent cell viability loss – plate reader, dry powder, dose response (AID 743049); type: functional, cell-based
# Paired box protein Pax-8 = Paired box protein Pax-8 (Homo sapiens, UniProt Q06710); assay: PAX8 transcriptional activity inhibition in RMG-I – RMG-I cells, luciferase, cherry-pick, dose response (AID 687027); type: functional, cell-based;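 note: luciferase reporter driven by Pax8 target thyroperoxidase promoter measured by SteadyGlo luminescence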
# [17] = PAX5 cellular inhibition readout – cell-based, plate reader, dry powder samples, selectivity assay for PAX8 inhibitor project, dose response (AID 743047); type: functional;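 note: HEK293 cells carrying a Pax5 driven CD19 promoter luciferase reporter; potency of inhibitors that lower reporter luminescence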
# [18] = OV-90 cell viability loss – plate reader, dry powder, SA8, PAX8 inhibitor project, dose response (AID 743149); type: functional, cell-based
# [19] = Dd2 parasite growth inhibition in erythrocytes – SYBR Green, dry powder samples, set 9, dose response (AID 1159568); type: functional, cell-based
# [20] = inhibitors of non-replicating M. tuberculosis, dose response, luciferase, dry powder (AID 651620); type: functional; details: Mycobacterium tuberculosis
# [21] = inhibitors of non-replicating M. tuberculosis, dose response, luciferase, dry powder (AID 651619); type: functional; details: Mycobacterium tuberculosis
# [22] = mouse embryonic fibroblast toxicity – cell-based, plate reader, dry powder, set 2, cytotoxicity control, dose response (AID 652280); type: functional; details: NIH3T3
# [23] = T. cruzi growth inhibition in host cells, dose response, cell-based, plate reader, dry powder, set 2 (AID 652275); type: functional
# [24] = viability loss in HEK293 kidney cells – cell-based, cherry-picks, set 5, cytotoxicity control, dose response (AID 1053117); type: functional
# [25] = blockers of FN fibrillogenesis by fibroblasts – AH1F cells, Alexa488-FN fluorescence, cherry-picks, dose response (AID 1035475); type: functional, cell-based
# [26] = viability loss in A549 lung cancer cells – cell-based, cherry-picks, […], cytotoxicity control, dose response (AID 1053119); type: functional
# [27] = viability loss in HepG2 hepatoma cells – cell-based, cherry-picks, set 5, cytotoxicity control, dose response (AID 1053118); type: functional
# Peroxisome proliferator-activated receptor gamma/Nuclear receptor coactivator 2, sequence (P37231 whole entry): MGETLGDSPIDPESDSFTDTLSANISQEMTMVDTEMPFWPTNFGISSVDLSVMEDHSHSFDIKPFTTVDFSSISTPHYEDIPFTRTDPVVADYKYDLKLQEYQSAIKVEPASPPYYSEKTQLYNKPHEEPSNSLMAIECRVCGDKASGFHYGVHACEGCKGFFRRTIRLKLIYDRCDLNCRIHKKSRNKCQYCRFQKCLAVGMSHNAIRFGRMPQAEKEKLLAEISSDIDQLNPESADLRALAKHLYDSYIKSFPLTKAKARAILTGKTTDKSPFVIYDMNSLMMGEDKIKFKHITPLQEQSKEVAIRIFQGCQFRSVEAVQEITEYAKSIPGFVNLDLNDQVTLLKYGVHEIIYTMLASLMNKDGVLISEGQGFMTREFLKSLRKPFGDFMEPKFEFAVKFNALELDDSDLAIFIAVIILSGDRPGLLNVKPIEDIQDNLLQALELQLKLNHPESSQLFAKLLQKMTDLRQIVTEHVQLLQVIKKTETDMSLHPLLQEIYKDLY
# Peroxisome proliferator-activated receptor gamma/Nuclear receptor coactivator 2, sequence (Q15596 whole entry, further chain): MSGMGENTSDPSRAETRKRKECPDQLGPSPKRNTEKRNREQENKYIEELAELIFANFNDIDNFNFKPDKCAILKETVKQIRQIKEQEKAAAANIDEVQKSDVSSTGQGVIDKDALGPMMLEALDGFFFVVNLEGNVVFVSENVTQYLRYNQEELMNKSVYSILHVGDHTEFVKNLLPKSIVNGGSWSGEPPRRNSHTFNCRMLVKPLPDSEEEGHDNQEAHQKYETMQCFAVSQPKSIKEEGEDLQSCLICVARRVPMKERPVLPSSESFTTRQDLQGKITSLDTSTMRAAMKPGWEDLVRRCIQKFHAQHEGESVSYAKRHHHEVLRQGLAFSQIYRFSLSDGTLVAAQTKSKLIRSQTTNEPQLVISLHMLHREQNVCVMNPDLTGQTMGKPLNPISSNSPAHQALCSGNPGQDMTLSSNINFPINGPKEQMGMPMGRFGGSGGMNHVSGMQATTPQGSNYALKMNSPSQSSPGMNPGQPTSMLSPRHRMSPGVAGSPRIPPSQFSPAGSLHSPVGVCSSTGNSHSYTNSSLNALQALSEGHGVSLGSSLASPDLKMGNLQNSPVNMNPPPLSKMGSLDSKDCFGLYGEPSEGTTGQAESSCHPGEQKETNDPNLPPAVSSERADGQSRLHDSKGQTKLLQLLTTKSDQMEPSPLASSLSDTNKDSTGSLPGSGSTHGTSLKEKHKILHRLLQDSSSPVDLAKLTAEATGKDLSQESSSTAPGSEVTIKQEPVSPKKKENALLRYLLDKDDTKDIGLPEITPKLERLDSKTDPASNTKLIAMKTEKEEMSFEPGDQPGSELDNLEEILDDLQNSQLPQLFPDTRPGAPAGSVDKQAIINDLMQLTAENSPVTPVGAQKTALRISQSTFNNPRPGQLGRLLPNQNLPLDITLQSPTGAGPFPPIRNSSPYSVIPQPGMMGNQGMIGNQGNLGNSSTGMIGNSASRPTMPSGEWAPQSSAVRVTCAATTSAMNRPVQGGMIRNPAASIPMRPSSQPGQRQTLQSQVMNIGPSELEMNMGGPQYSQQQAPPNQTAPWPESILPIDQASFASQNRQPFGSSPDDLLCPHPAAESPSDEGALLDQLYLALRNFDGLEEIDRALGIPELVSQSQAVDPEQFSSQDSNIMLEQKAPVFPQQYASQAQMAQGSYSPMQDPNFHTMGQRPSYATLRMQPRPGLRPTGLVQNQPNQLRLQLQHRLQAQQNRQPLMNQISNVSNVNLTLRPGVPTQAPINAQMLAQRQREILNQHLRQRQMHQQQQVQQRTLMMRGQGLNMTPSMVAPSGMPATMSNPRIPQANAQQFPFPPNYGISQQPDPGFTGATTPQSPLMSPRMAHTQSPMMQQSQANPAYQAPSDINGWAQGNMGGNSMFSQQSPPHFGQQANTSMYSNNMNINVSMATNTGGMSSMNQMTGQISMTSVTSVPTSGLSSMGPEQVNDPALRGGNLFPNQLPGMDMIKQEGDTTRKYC
# Peroxisome proliferator-activated receptor gamma/Nuclear receptor coactivator 1, sequence (P37231 whole entry): as the sequence (P37231 whole entry) above
# Peroxisome proliferator-activated receptor gamma/Nuclear receptor coactivator 1, sequence (Q15788 whole entry, further chain): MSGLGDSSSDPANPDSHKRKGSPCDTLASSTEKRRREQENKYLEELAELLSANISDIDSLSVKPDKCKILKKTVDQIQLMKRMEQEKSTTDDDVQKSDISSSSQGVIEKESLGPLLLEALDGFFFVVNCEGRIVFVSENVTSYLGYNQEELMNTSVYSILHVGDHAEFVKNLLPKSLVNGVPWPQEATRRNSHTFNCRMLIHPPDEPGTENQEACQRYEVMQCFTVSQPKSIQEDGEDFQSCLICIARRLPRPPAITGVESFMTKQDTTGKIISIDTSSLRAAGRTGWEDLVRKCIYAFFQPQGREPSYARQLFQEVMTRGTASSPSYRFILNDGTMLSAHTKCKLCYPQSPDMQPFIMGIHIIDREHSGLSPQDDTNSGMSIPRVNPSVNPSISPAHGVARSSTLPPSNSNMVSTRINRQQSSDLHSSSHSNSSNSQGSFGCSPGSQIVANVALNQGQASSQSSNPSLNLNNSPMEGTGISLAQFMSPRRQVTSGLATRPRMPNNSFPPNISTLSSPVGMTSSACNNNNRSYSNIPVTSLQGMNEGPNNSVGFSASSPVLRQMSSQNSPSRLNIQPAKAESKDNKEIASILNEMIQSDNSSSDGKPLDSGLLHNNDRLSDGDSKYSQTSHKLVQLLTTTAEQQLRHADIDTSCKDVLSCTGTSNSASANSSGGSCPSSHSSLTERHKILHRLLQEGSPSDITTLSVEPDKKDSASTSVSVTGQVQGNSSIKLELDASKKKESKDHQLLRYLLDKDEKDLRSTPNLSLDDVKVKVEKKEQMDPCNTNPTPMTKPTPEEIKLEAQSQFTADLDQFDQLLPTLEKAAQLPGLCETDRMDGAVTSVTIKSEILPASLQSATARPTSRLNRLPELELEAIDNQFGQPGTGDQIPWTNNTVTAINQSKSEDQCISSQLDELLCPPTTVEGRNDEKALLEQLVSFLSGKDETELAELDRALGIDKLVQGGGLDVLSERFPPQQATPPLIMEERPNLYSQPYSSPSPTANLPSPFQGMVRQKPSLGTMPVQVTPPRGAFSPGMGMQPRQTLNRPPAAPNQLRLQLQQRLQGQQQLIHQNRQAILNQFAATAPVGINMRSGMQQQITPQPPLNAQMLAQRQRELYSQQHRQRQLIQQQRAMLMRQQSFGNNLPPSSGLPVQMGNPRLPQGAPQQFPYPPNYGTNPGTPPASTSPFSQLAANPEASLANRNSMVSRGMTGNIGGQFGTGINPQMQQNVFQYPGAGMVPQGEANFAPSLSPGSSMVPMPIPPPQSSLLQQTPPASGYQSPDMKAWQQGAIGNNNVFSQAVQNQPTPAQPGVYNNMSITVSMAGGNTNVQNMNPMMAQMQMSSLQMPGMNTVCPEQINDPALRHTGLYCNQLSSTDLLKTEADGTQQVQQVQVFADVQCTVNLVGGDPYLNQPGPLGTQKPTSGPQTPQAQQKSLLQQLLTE
# Paired box protein Pax-8, sequence (Q06710 whole entry): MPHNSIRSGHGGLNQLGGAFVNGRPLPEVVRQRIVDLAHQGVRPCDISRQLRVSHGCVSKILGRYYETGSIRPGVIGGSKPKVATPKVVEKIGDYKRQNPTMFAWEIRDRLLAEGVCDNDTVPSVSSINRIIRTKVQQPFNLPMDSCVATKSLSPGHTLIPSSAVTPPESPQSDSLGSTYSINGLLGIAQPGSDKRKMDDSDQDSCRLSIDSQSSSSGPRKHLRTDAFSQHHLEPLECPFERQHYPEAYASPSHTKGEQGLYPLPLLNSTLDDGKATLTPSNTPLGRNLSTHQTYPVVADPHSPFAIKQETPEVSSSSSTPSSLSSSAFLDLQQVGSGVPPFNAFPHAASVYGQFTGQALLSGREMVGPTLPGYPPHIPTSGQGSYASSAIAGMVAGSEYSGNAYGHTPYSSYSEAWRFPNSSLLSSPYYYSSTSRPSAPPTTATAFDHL
# Kappa-type opioid receptor, sequence (P41145 whole entry): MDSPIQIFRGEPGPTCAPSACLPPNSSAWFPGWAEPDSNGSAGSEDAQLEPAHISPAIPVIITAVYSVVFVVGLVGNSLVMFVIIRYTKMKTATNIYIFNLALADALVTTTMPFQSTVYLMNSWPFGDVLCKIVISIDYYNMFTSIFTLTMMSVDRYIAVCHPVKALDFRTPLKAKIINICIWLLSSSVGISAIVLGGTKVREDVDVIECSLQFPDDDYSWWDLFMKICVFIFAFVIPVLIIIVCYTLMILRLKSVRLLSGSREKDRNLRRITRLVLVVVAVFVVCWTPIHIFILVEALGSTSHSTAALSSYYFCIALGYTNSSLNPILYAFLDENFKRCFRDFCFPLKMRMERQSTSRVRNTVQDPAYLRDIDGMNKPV
structure (smiles),measurement,setting,value
COc1ccc2nc(SCC(=O)Nc3ccc(S(=O)(=O)N4CCCC4)cc3)c(C#N)cc2c1,EC50,[1],> 26.5 µM (not active)
same,EC50,[2],7.11 µM (active)
same,EC50,[3],7.32 µM (active)
same,IC50,[4],> 69.5 µM (inactive)
same,IC50,[5],> 69.5 µM (inactive)
same,IC50,Protein skinhead-1,> 100 µM (inactive)
C=CCNC1=C(N(C)C(C)=O)C(=O)c2ccccc2C1=O,AC50,[6],2.59 µM (active)
same,AC50,[7],8.92 µM (active)
C[C@H]1CCCCO[C@@H](CN(C)C(=O)Nc2ccc(C(F)(F)F)cc2)[C@@H](C)CN([C@@H](C)CO)C(=O)c2cc(NC(=O)CCC(F)(F)F)ccc2O1,AC50,[8],> 52 µM (inactive)
same,AC50,[9],31 µM (active)
same,AC50,[10],> 52 µM (inactive)
same,AC50,[11],4.55 µM (active)
CCS(=O)(=O)N1CC2(C1)[C@@H](c1ccccc1)[C@H](CO)N2Cc1ccc(F)cc1,AC50,[12],6 µM (active)
same,AC50,[13],> 39 µM (inactive)
COC(=O)c1cc(Br)cnc1N1CCC(OC2CCCCC2O)CC1 (centres undefined),IC50,[14],> 50 µM (inactive)
C[C@H]1CN([C@@H](C)CO)C(=O)Cc2cc(NC(=O)NC3CCCCC3)ccc2O[C@@H]1CN(C)Cc1ccc(-c2ccccc2)cc1,AC50,[15],19.3 µM (active)
same,AC50,[16],> 70 µM (inactive)
same,AC50,Paired box protein Pax-8,14.5 µM (active)
same,AC50,[17],20.8 µM (active)
same,AC50,[18],> 70 µM (inactive)
C[C@@H]1CCCCO[C@H](CN(C)S(=O)(=O)c2ccccc2)[C@@H](C)CN([C@@H](C)CO)C(=O)c2cc(NC(=O)Nc3ccc4c(c3)OCO4)ccc2O1,AC50,[19],1.64 µM (active)
O=S(=O)(Cc1ccccc1)c1nnc(-c2ccccc2)o1,IC90,[20],2 µM (active)
same,IC90,[21],2 µM (active)
O=C(C1CC1)N1CCCCN2[C@@H](CO)[C@H](c3ccc(-c4cccc(F)c4)cc3)[C@@H]2C1,AC50,[22],26.7 µM (active)
same,AC50,[23],0.312 µM (active)
CO[C@@H]1CN(C)C(=O)c2ccc(NC(=O)Nc3ccc(Cl)c(Cl)c3)cc2OC[C@@H](C)NC[C@@H]1C,AC50,[24],20.4 µM (active)
same,AC50,[25],36.8 µM (active)
same,AC50,[26],13.1 µM (active)
same,AC50,[27],24.2 µM (active)
